Data as given in US20250161250A1, “COMPOSITIONS AND METHODS FOR TREATMENT OF IDIOPATHIC PULMONARY FIBROSIS” (NUFORMIX TECHNOLOGIES LIMITED, priority 2022, published 2025).
“Also recorded” adds a separate entry of the source.

How the values were obtained:
Format in all cases: cell-based
MCP-1 = MCP-1 levels in human IPF-PCLS culture supernatants (MSD multiplex ELISA); conditions: for MCP-1: after 4-day dosing; for MCP-1 secretion: any concentration tested, human IPF PCLS supernatant
Method: (§1) PCLS preparation and culture: PCLS were prepared from a single explanted human IPF lung and rested for 48 hrs to allow the post-slicing stress period to elapse before experiments began. PCLS were subsequently incubated with vehicle (0.1% DMSO), tranilast as a 1:1 l-lysine tranilast salt at 2 escalating concentrations (31.25 μM, 125 μM), pirfenidone at 3 escalating concentrations (0.25 mM, 1 mM, 2.5 mM) or nintedanib at 3 escalating concentrations (0.25 μM, 1 μM, 2.5 μM) in the presence or absence of Tranilast at 2 escalating concentrations (31.25 μM, 125 μM) for a further 96 hrs. PCLS culture media and all compounds were refreshed at 24 hrs intervals. All PCLS were harvested at 144 hrs.
(§2) Experimental groups: Twenty-one (21) different groups with n=6 human PCLS (total n=126 per lung) were investigated as shown in Table 4 below. PCLS were prepared from n=1 individual human IPF lungs.
(§3) PCLS Treatments and Media Collections: PCLS were incubated for a 48 hr rest period. Post-rest, PCLS were incubated for a further 96 hrs in the presence or absence of inhibitors as outlined above. PCLS culture media, including all compounds, were refreshed and harvested at 24 hrs intervals from 48 hrs. All PCLS were harvested at 144 hrs.
(§4) PCLS harvest: Cell culture supernatant (n=6 per group) were collected every 24 hrs and snap frozen for quantification of inflammatory cytokines and soluble ECM proteins. At harvest, PCLS (n=6 per group) and cell culture media (n=6 per group) were snap frozen for quantification of inflammatory cytokines and soluble ECM proteins.
(§5) Soluble outputs analysis: Anti-inflammatory potential was assessed by determining the levels of the inflammation markers MCP-1, IL-6, GMCSF, IL-8, and IL-1β in the tissue culture supernatants experiment (n=213 samples (n=630 samples; n=126 at 48 hrs, 72 hrs, 96 hrs, 120 hrs and 144 hrs) were quantified using a MSD multiplex ELISA (MesoScaleDiscovery). Anti-fibrotic potential was assessed by determining the levels of the fibrosis markers Collagen-1a1, TIMP1, and Fibronectin in the tissue culture supernatants (n=630 samples as above) were quantified using a single-plex ELISA (R&D). Summary data for all inflammatory markers and fibrotic markers in PCLS treated with pirfenidone (FIGS. 1a and 1b) or nintedanib (FIGS. 2a and 2b) in the presence or absence of Tranilast at 144 hrs only. Graphs are represented by n=6 tissue culture media per condition, per time point. Data is presented as mean±SEM with individual values per tissue culture media.

IL-6 = IL-6 levels in human IPF-PCLS culture supernatants (MSD multiplex ELISA); conditions: single treatment, any concentration tested
Method: as §1, §2
(§6) PCLS Treatments and Media Collections: PCLS were incubated for a 48 hr rest period. […]
as §4
as §5, with “Graphs are represented by n=6 tissue culture media per condition, per time point. Data is presented as mean±SEM with individual values per tissue culture media.” left out

IL-8 = IL-8 levels in human IPF-PCLS culture supernatants (MSD multiplex ELISA); conditions: single treatment, any concentration tested
Method: as §1, §2, §6, §4
as §5, with “Graphs are represented by n=6 tissue culture media per condition, per time point. Data is presented as mean±SEM with individual values per tissue culture media.” left out

Collagen-1a1 = experiment: Collagen 1a1 levels in human IPF-PCLS culture supernatants (single-plex ELISA); conditions: for Collagen 1a1 secretion: single treatment; for Col1A1: after 4-day dosing
Method: as §1, §2, §3, §4, §5

Fibronectin = Fibronectin levels in human IPF-PCLS culture supernatants (single-plex ELISA); conditions: single treatment, high concentration, at 144 hrs
Method: as §1, §2, §6
PCLS harvest: Cell culture supernatant (n=6 per group) were collected every 24 hrs and snap frozen for quantification of inflammatory cytokines and soluble ECM proteins. At harvest, PCLS (n=6 per group) and cell culture media (n=6 per group) were snap frozen for quantification of inflammatory cytokines and soluble ECM proteins. […]

[1] = alone (suboptimal / ineffective concentration)
[2] = suboptimal concentrations alone

## COC(=O)c1ccc2c(c1)NC(=O)/C2=C(\Nc1ccc(N(C)C(=O)CN2CCN(C)CC2)cc1)c1ccccc1 [nintedanib]
MCP-1; [1]
  MCP-1: no effect; also recorded: neither nintedanib (Nin) nor tranilast (TL) alone effected
MCP-1; single treatment
  MCP-1 secretion: little to no effect
IL-6
  IL-6 secretion: Little to no effect
IL-8
  IL-8 secretion: little to no effect
Collagen-1a1; any concentration tested
  Collagen 1a1 secretion: little to no effect

## COc1ccc(/C=C/C(=O)Nc2ccccc2C(=O)O)cc1OC [tranilast, 2-[[3-(3,4-dimethoxyphenyl)-1-oxo-2-propenyl]amino]benzoic acid]
MCP-1; [1]
  MCP-1: minimal effect; also recorded: neither nintedanib (Nin) nor tranilast (TL) alone effected
MCP-1; single treatment, high concentration
  MCP-1 levels: marginally reduced
IL-6
  IL-6 secretion: Little to no effect
IL-8
  IL-8 secretion: little to no effect
Collagen-1a1; [2]
  Col1A1: minimal effect
Collagen-1a1; high concentration
  Collagen 1a1 secretion: marginally reduced

## Cc1ccc(=O)n(-c2ccccc2)c1 [pirfenidone]
MCP-1; [1]
  MCP-1: minimal effect
MCP-1; high concentration alone
  MCP-1: strongly inhibited
MCP-1; single treatment
  MCP-1 secretion: concentration dependently attenuated
IL-6
  IL-6 secretion: Little to no effect
IL-8
  IL-8 secretion: concentration dependently attenuated
Collagen-1a1; high concentration alone
  Col1A1: strongly inhibited
Collagen-1a1; [2]
  Col1A1: minimal effect
Collagen-1a1; any concentration tested
  Collagen 1a1 secretion: concentration dependently attenuated
Fibronectin
  Fibronectin secretion: attenuation
